Results reported in US9540702B2, “Stabilization of enzymes with stable coenzymes” (Roche Diabetes Care, Inc., priority 2009, dated 2017).

Columns and labels:
[1] = target: Glucose dehydrogenase mutant2 (Bacillus subtilis, UniProt P12310, A229V/A236S/E170K/Q252L); assay: Enzyme activity in test strips stored up to 18 weeks (Table 6); assay type: biochemical
Protocol: In order to evaluate the stabilization of glucose dehydrogenase and diaphorase by carbaNAD, a number of test strips were prepared in analogy to Example 5.
The test strips were stored over a period of 18 weeks at temperatures of 5° C. (KS, refrigerator), 25° C. (RT), 30° C. (GT), 35° C. (DT) and 45° C. (HT), and the enzyme activity in the test strips was determined at the start of storage (0 weeks), after 6 weeks, after 9 weeks, after 12 weeks and after 18 weeks. The results are shown in Table 6 (glucose dehydrogenase) and in Table 7 (diaphorase).

diaphorase [2] = assay: Diaphorase activity extracted from blood glucose test strips after storage; assay type: biochemical; settings: blood glucose test strips stored at 32° C. and 30-70% relative air humidity
Protocol: A composition which, among others, contained glucose dehydrogenase (GlucDH), carbaNAD, diaphorase, nitrosoaniline and phosphomolybdic acid was used to determine blood glucose. Test strips were obtained by applying a first formulation to a polycarbonate foil using a doctor blade (layer height 100 μm), drying the first layer, applying a second formulation to the first layer (doctor blade gap 30 μm), and drying the second layer. The test strips were stored at 32° C. and 30-70% relative air humidity.

alcohol dehydrogenase = target: T1, alcohol dehydrogenase (Saccharomyces cerevisiae, UniProt P00330); assay: DSC of coenzyme binding; settings: 3.8 mM ligand; 0.75M glycine sodium pyrophosphate, pH 9.0
T1 sequence (P00330 1-348): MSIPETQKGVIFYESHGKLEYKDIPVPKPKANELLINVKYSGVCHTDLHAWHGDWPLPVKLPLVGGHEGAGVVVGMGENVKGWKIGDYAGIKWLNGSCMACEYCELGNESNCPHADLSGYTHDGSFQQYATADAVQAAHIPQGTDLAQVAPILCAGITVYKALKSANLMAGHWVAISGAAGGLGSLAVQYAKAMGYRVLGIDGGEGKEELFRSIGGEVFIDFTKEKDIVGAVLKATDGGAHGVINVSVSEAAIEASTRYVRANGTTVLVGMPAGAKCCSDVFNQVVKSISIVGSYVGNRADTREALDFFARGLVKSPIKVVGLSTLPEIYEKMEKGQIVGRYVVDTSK

[3] = target: glucose dehydrogenase (GlucDH, wild-type) (Bacillus subtilis, UniProt P12310); assay: Residual activity of GlucDH stored dry on Pokalon foils with coenzyme at 32° C., 85% relative air humidity; assay type: biochemical
Chain of glucose dehydrogenase (GlucDH, wild-type) (P12310 whole entry): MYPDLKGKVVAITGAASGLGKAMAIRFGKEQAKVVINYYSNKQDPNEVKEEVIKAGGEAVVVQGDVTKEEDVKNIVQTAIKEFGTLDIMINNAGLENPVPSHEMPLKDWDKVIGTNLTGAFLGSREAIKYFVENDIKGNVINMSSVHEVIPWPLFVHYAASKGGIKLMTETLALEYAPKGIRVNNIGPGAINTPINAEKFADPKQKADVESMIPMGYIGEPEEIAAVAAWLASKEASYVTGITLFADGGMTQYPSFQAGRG
Protocol: (§1) carbaNAD (FIG. 1A) or NAD were added to the glucose-specific GlucDH. These formulations were each applied to Pokalon foils (Lonza) and, after drying, stored under warm and humid conditions (32° C., 85% relative air humidity). Subsequently, the reaction kinetics and the function curve were determined at regular intervals. In parallel at each of the measurement times a cNAD/NAD analysis and a determination of the residual activity of the enzyme were carried out.
The result of the determination of residual activity of the active enzyme GlucDH after 5 weeks at 32° C. and 85% relative air humidity (FIG. 7A) is completely surprising. The enzyme stabilized with NAD now only has an extremely low enzyme activity (0.5%), whereas the enzyme stabilized with cNAD still has a residual activity of 70% (in each case compared to the samples stored in a refrigerator (KS) with desiccant (TM)). After 24 weeks at 32° C. and 85% relative air humidity (FIG. 7B) the residual activity of the enzyme when stabilized with cNAD is still about 25%.

[4] = target: T2, diaphorase (from porcine heart) (Sus scrofa, UniProt P09623); assay: Diaphorase activity in liquid reagent for lactate dehydrogenase stored at 25° C.; assay type: biochemical; settings: liquid reagent stored at 25° C.; 2 mM carbaNAD or 0.2 mM NAD; various storage times
T2 construct: 3 U/ml diaphorase (from porcine heart); from tissue; host or cells: porcine heart
T2 sequence (P09623 36-509): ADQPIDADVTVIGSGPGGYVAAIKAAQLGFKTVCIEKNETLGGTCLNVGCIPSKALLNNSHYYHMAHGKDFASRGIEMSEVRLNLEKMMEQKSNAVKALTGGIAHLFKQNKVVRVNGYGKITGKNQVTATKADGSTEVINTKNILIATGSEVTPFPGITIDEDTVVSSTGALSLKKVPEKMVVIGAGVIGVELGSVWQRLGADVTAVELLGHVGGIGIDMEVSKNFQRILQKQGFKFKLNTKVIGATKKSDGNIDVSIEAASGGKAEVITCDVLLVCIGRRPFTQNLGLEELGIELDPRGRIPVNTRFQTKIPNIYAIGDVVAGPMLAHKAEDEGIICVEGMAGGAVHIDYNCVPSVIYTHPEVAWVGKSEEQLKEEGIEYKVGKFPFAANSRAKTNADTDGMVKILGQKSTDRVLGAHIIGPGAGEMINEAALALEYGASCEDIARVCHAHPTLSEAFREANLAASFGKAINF
Protocol: A liquid reagent which, among others, contained diaphorase, carbaNAD, a tetrazolium salt and lactate was used to determine the activity of lactate dehydrogenase. The detection reagent which was stored in solution at 25° C. contained the following ingredients:
3 U/ml diaphorase (from porcine heart)
2 mM carbaNAD or 0.2 mM NAD
2 mM tetrazolium salt WST-3
0.1 M tricine/HCl, pH 8.8

malate dehydrogenase = settings: 3.8 mM ligand; 0.5M carbonate buffer, pH 10.0
Protocol: The DSC device was cleaned and calibrated according to the MicroCal handbook before carrying out the measurements in order to ensure a correct operation. Lysozyme (1 mg/ml) in 0.1 M glycine-HCl pH 2.4 was measured in duplicate as a control before and after each scan process. Measuring cells, valve and syringe were washed three times with water after every six injections. The data was analysed using the MicroClas Origin software.
In each case 0.1 M Tris buffer, pH 8.5 was used as the measurement buffer if not stated otherwise.

[5] = Residual content of coenzyme in glucose detection reagent after storage at 32° C. and 85% relative air humidity; assay type: physicochemical; settings: 24 weeks storage at 32° C. and 85% relative air humidity
Protocol: as §1
According to this the residual content of cNAD in a glucose detection reagent is still about 80% of the initial value after 24 weeks storage (at 32° C. and 85% relative air humidity), whereas the content of NAD in a glucose detection reagent stabilized with NAD is already reduced to about 35% of the initial value after 5 weeks and, by extrapolation, is reduced to zero after about 17 weeks.

diaphorase [6] = assay: Diaphorase activity extracted from triglyceride test strips after storage; assay type: biochemical; settings: triglyceride test strips stored at 32° C. and 30-70% relative air humidity
Protocol: A composition which, among others, contained glycerol dehydrogenase, carbaNAD, diaphorase and a tetrazolium salt was used to determine triglycerides. Test strips were obtained by applying the formulation mentioned in Table 4 to a polycarbonate foil by means of a doctor blade (layer height 80 μm) and subsequent drying, and they were stored at 32° C. and 30-70% relative air humidity.

Chain of Glucose dehydrogenase mutant2 (P12310 whole entry E170K/A229V/A236S/Q252L): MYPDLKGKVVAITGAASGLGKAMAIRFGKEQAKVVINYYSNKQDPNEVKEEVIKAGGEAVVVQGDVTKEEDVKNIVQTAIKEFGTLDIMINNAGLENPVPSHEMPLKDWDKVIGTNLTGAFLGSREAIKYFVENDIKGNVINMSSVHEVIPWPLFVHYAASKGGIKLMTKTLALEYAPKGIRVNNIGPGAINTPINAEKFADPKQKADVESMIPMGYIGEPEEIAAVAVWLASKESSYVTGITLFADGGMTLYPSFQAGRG

SMILES: NC(=O)c1ccc[n+]([C@@H]2C[C@H](COP(=O)([O-])OP(=O)(O)OC[C@H]3O[C@@H](n4cnc5c(N)ncnc54)[C@H](O)[C@@H]3O)[C@@H](O)[C@H]2O)c1 [carbaNAD]
- Enzyme activity, glucose dehydrogenase ([1]; 0 weeks (start of storage)): 19.8 U/cm^2
- Enzyme activity, glucose dehydrogenase ([1]; DT (35° C.), 6 weeks): 19.8 U/cm^2
- Enzyme activity, glucose dehydrogenase ([1]; DT (35° C.), 9 weeks): 20.2 U/cm^2
- Enzyme activity, glucose dehydrogenase ([1]; DT (35° C.), 12 weeks): 17.2 U/cm^2
- Enzyme activity, glucose dehydrogenase ([1]; DT (35° C.), 18 weeks): 16.9 U/cm^2
- Enzyme activity, glucose dehydrogenase ([1]; GT (30° C.), 12 weeks): 17.6 U/cm^2
- Enzyme activity, glucose dehydrogenase ([1]; GT (30° C.), 18 weeks): 16.8 U/cm^2
- Enzyme activity, glucose dehydrogenase ([1]; HT (45° C.), 6 weeks): 19.0 U/cm^2
- Enzyme activity, glucose dehydrogenase ([1]; HT (45° C.), 9 weeks): 18.8 U/cm^2
- Enzyme activity, glucose dehydrogenase ([1]; KS (5° C.), 6 weeks): 20.4 U/cm^2
- Enzyme activity, glucose dehydrogenase ([1]; KS (5° C.), 9 weeks): 21.2 U/cm^2
- Enzyme activity, glucose dehydrogenase ([1]; KS (5° C.), 12 weeks): 18.5 U/cm^2
- Enzyme activity, glucose dehydrogenase ([1]; KS (5° C.), 18 weeks): 18.8 U/cm^2
- Enzyme activity, glucose dehydrogenase ([1]; RT (25° C.), 6 weeks): 20.7 U/cm^2
- Enzyme activity, glucose dehydrogenase ([1]; RT (25° C.), 9 weeks): 21.5 U/cm^2
- Enzyme activity, glucose dehydrogenase ([1]; RT (25° C.), 12 weeks): 18.0 U/cm^2
- Enzyme activity, glucose dehydrogenase ([1]; RT (25° C.), 18 weeks): 17.7 U/cm^2
- residual activity of diaphorase compared to formulation containing NAD (diaphorase [2]): considerably increased residual activity
- TM (alcohol dehydrogenase): 55.4 °C
- ΔHcal (alcohol dehydrogenase): 310 kcal/mol
- residual activity of GlucDH ([3]; 5 weeks at 32° C. and 85% relative air humidity, compared to samples stored in refrigerator with desiccant): 70%
- residual activity of GlucDH ([3]; 24 weeks at 32° C. and 85% relative air humidity): about 25%
- residual activity of diaphorase compared to formulation containing NAD [4]: considerably increased residual activity
- TM (malate dehydrogenase): 43.2 °C
- ΔHcal (malate dehydrogenase): 340 kcal/mol
- residual content of coenzyme in glucose detection reagent [5]: about 80 % of the initial value
- residual activity of diaphorase compared to formulation containing NAD (diaphorase [6]): considerably increased residual activity
